# ChEMBL document CHEMBL1201862, “PubChem BioAssay data set” (2004)
# Activity calls are given as the source filed them.
# Columns and labels:
# [1] = biological target: E3 ubiquitin-protein ligase Mdm2 (Homo sapiens, UniProt Q00987); assay: enhancers of MDM2-luciferase reporter signal, concentration-effect titration, project on inhibitors of MDM2 ubiquitin ligase, cellular assay, luminescent readout, 384-well plate format (AID 1394); assay type: functional;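 note: MDM2 E3 inhibitors raise luminescence so EC50 is for signal enhancement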
# Streptokinase A = biological target: T1, Streptokinase A (Streptococcus pyogenes serotype M1, UniProt P10520); assay: S. pyogenes streptokinase expression inhibitors, potency, dose response, plasminogen activation absorbance, OD405 (AID 1914); assay type: functional, Streptococcus pyogenes M1 GAS;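 note: secreted streptokinase activity via plasminogen activation per viability signal from cell pellet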
# T1 sequence (P10520 whole entry): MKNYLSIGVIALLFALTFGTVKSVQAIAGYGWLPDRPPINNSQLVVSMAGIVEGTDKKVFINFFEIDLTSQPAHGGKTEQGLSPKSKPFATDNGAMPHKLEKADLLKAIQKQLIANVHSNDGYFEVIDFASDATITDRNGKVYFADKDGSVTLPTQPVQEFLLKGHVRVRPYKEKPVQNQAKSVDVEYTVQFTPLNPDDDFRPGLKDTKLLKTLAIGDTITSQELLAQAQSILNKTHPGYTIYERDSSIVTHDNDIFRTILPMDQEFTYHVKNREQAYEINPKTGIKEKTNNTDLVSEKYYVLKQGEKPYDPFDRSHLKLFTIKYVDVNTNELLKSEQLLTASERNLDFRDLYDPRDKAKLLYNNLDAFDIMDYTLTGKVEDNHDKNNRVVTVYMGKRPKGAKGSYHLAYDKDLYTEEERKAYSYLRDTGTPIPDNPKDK
# Streptococcus = assay: Group A Streptococcus viability loss, dose response, counter-screen for streptokinase expression inhibitor project, luminescence, BacTiterGlo (AID 1915); assay type: functional, organism-based;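 note: potency for reduction of bacterial viability or growth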
# [2] = system: Streptococcus sp. 'group A'; assay: growth inhibition of control SK(-) GAS strain, dose response, counter-screen for streptokinase expression inhibitor project, luminescence, kanamycin, BacTiterGlo, confirmation (AID 1900); assay type: functional, organism-based
# [3] = biological target: Heat shock protein HSP 90-alpha (Homo sapiens, UniProt P07900); assay: Luminescence-based dose response biochemical high throughput screening assay for inhibitors of the Heat Shock Protein 90 (HSP90). [Related pubchem assays: 1831 (Summary AID.), 1846 (Confirmation screen.), 1789 (Primary screen.)]
# SUMO-activating enzyme [4] = biological target: T2, SUMO-activating enzyme (Homo sapiens, UniProt Q9UBT2); assay: inhibitors of in vitro SUMOylation cascade, primary screen, biochemical, HTRF, uHTS (AID 2006); assay type: protein-complex assay
# SUMO-activating enzyme [5] = biological target: T2, SUMO-activating enzyme; assay: SUMOylation inhibitor hit validation, confirmation, SUMOylation inhibitor project, biochemical, AlphaScreen (AID 2018); assay type: functional
# Genome polyprotein [6] = biological target: Genome polyprotein (dengue virus type 2, UniProt P29990); assay: Dengue-2 NS5 methyltransferase inhibitors, primary screen, biochemical, confirmation dose response (AID 588689); assay type: functional
# Genome polyprotein [7] = biological target: Genome polyprotein (Hepatitis C virus, UniProt Q2Q167); assay: HCV core protein dimerization inhibitors, dose response, biochemical, TR-FRET (AID 2159); set-up: species or system Hepacivirus hominis;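 note: blocks dimerization of HCV core protein measured by TR-FRET between tagged core106 pairs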
# [8] = biological target: Mitogen-activated protein kinase 10 (Homo sapiens, UniProt P53779); assay: Dose response biochemical screening assay for inhibitors of c-Jun N-Terminal Kinase 3 (JNK3). [Related pubchem assays: 746 ]
# [9] = cytotoxicity in HPDE-C7 cells, cell-based, fluorescence, HTS (AID 430); assay type: functional; conditions: Homo sapiens
# [10] = cytotoxicity in KRAS-transformed pancreatic duct cells, primary screen, cell-based, fluorescence, HTS (AID 431); assay type: functional; conditions: Homo sapiens;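 note: cell line used: HPDE-C7K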
# [11] = HepG2 cell cytotoxicity, dose response, cytotoxicity control for Shn3 inhibitor project, CellTiter-Glo, cherry-picked (AID 624134); assay type: functional, cell-based
# [12] = control 3'UTR Renilla luciferase suppression, dose response, counter-screen for Shn3 inhibitor project, cell-based, Clone20-Shn3RL, cherry-picked (AID 624133); assay type: functional
# Galanin receptor type 3 = Galanin receptor type 3 (Homo sapiens, UniProt O60755); assay: Fluorescence-based cell-based primary high throughput dose response assay to identify antagonists of the Galanin Receptor 3 (GalR3).; assay type: functional
# HEK293 = assay: inhibitors of LMP1-driven NF-kB reporter, dose response, cell-based, HEK293, luciferase, cherry-pick (AID 588343); assay type: functional; conditions: Homo sapiens
# cells = assay type: functional, cell-based; conditions: HEK-CNG
# [13] = biological target: Sphingosine 1-phosphate receptor 2 (Homo sapiens, UniProt O95136); assay: Dose Response Cell Based Assay for Antagonists of the S1P2 Receptor. [Related pubchem assays: 856, 736 ]; assay type: functional
# [14] = Shn3 3'UTR reporter inhibitors, dose response, cell-based, Clone20 osteoblasts, firefly luciferase, cherry-picked (AID 624132); assay type: functional;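 note: firefly luciferase luminescence from reporter carrying the Shn3 3'UTR in osteoblasts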
# Estrogen receptor beta = Estrogen receptor beta (Homo sapiens, UniProt Q92731); assay: ERβ–SRC-3 coactivator interaction inhibitors, confirmation, orthogonal assay, biochemical, ELISA, streptavidin-HRP readout (AID 1060)
# Bcl-2-like protein 10 = biological target: T3, Bcl-2-like protein 10 (Homo sapiens, UniProt Q9HD36); assay: displacers of TR3 peptide from Bcl-B, primary screen, selectivity assay for Bfl-1 inhibitor project, biochemical, fluorescence polarization, FITC-TR3 peptide (AID 748);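 note: fluorescence polarization from a fluorescein-labelled TR3 peptide binding purified Bcl-B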
# T3 sequence (Q9HD36 whole entry): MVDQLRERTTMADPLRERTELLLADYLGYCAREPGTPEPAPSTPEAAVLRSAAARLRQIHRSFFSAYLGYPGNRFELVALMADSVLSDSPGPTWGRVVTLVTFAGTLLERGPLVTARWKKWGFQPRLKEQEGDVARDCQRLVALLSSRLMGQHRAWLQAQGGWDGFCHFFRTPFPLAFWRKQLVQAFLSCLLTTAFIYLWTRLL
# [15] = biological target: T4, Zinc finger protein mex-5 (Caenorhabditis elegans, UniProt Q9XUB2); assay: MEX-5/TCR-2 RNA interaction inhibitors, dose response, biochemical, C. elegans, fluorescence polarization (AID 1960)
# T4 sequence (Q9XUB2 whole entry): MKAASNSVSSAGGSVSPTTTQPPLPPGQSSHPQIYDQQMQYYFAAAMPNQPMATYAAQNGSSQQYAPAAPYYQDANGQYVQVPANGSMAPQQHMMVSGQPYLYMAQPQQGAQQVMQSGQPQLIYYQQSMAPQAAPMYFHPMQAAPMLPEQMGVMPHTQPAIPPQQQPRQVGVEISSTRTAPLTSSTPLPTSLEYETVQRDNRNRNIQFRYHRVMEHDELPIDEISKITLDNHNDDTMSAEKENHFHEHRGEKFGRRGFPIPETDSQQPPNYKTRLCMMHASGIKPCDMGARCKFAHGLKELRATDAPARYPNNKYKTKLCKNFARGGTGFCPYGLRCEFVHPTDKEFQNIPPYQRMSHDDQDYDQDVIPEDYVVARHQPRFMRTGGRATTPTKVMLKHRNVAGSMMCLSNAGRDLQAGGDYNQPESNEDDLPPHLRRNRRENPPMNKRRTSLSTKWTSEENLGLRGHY
# [16] = biological target: Bifunctional protein GlmU (Mycobacterium tuberculosis, UniProt P9WMN3); assay: Inhibitors of Mycobacterial Glucosamine-1-phosphate acetyl transferase (GlmU). Secondary screen.; set-up: species or system Mycobacterium tuberculosis H37Rv
# [17] = biological target: T5, Carboxy-terminal domain RNA polymerase II polypeptide A small phosphatase 1 (Homo sapiens, UniProt Q9GZU7); assay: inhibitors of CTDSP1, concentration-response testing, biochemical assay, absorbance-based, actives from ultra-high-throughput screening (AID 540297); assay type: functional
# T5 sequence (Q9GZU7 whole entry): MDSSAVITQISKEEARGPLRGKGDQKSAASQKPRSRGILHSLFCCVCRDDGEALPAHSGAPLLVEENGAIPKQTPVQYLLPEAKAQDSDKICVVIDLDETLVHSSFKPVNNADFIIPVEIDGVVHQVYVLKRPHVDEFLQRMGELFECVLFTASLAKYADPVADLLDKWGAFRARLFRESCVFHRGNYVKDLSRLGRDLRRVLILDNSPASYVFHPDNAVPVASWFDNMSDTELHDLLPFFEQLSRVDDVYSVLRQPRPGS
# [18] = biological target: T6, Histone-lysine N-methyltransferase NSD2 (Homo sapiens, UniProt O96028); assay type: biochemical
# T6 sequence (O96028 whole entry): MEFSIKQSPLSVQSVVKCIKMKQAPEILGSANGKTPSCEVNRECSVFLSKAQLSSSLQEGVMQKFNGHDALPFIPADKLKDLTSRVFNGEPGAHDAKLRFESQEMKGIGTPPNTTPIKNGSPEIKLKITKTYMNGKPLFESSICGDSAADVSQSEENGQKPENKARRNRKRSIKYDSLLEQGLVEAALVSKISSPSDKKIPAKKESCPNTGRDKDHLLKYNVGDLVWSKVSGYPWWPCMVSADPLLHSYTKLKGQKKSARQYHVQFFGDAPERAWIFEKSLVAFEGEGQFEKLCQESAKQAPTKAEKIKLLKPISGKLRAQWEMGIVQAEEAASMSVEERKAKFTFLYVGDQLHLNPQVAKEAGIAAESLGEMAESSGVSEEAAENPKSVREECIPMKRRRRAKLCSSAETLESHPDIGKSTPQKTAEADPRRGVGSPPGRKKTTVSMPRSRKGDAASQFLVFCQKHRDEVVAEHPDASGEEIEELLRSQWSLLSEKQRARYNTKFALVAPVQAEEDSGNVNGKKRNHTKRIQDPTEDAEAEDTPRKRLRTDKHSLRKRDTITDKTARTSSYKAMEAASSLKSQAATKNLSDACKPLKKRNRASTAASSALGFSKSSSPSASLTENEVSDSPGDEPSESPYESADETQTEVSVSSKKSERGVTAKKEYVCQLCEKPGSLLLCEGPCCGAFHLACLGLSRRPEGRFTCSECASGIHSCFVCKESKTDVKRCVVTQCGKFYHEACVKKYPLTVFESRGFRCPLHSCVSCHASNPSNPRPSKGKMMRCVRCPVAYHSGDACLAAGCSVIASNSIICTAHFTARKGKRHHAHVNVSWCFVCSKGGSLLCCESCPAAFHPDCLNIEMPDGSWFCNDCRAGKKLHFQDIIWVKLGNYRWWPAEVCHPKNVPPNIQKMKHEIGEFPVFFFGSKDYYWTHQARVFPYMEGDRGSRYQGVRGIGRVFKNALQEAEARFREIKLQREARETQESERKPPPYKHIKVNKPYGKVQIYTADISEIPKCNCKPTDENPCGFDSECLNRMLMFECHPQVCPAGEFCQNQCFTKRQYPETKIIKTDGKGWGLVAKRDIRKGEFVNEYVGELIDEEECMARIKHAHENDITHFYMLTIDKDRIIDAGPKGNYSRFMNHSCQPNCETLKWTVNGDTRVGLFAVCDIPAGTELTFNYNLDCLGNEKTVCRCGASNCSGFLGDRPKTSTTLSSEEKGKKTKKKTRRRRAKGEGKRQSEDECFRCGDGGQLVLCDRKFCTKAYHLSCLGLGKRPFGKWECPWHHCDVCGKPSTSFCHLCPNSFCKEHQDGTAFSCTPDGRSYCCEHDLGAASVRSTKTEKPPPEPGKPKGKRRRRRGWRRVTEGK
# [19] = biological target: T7, RNA-binding protein pos-1 (Caenorhabditis elegans, UniProt G5EF15); assay: inhibitors of POS-1/mex-3 RNA binding, dose response, biochemical, fluorescence polarization (AID 1964);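 note: purified POS-1 fused to maltose binding protein made in E. coli; potency of compounds blocking POS-1 binding to fluorescent RNA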
# T7 sequence (G5EF15 whole entry): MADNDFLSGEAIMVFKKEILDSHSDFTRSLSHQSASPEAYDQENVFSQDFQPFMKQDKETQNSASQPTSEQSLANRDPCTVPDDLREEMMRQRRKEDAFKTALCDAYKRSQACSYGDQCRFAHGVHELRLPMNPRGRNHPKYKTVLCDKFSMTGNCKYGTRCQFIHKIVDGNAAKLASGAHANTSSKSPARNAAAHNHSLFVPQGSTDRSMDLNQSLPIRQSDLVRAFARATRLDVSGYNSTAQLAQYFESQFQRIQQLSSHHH
# [20] = biological target: T8, Dual specificity protein phosphatase 6 (Rattus norvegicus, UniProt Q64346); assay: MKP-3 phosphatase inhibitors, primary screen, biochemical, rat enzyme, in vitro (AID 425)
# T8 sequence (Q64346 whole entry): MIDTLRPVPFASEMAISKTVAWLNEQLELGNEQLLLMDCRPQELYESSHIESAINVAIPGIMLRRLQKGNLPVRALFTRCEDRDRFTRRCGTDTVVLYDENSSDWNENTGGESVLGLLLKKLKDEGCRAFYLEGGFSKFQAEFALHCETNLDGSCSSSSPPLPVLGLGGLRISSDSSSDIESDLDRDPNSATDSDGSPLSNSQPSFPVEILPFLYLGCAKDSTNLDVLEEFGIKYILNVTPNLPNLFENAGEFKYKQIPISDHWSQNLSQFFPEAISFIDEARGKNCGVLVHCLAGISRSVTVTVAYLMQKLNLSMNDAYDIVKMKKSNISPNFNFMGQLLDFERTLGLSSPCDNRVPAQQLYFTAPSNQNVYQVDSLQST
# T2 sequence (Q9UBE0 whole entry): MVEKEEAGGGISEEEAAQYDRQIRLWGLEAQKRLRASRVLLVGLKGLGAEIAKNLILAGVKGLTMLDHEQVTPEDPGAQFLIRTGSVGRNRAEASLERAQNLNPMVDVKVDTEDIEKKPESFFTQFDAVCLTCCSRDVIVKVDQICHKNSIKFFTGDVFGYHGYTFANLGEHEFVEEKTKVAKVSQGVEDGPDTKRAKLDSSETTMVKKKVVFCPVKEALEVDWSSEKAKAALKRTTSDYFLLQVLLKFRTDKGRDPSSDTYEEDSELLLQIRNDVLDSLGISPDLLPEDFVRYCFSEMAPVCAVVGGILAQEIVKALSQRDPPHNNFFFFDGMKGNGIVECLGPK
# T2 sequence (Q9UBT2 whole entry): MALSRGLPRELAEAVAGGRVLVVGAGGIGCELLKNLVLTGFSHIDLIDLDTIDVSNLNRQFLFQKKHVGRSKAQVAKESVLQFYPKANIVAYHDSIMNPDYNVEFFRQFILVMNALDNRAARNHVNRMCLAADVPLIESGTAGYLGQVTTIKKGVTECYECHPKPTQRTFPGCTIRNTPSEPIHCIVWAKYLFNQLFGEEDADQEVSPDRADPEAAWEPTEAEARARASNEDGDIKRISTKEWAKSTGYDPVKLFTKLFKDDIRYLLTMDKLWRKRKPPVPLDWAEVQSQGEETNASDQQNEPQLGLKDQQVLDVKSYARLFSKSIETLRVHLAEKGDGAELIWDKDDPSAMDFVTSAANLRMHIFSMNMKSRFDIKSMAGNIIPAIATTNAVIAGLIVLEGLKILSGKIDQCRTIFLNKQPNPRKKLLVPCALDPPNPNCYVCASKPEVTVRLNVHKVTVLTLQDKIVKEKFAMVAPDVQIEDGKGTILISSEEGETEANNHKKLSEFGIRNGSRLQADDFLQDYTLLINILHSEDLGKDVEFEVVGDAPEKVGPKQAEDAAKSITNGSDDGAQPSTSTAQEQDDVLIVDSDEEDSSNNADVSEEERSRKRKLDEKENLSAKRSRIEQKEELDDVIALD
# Genome polyprotein (dengue virus type 2, UniProt P29990), sequence (P29990 2492-3391 limits assumed): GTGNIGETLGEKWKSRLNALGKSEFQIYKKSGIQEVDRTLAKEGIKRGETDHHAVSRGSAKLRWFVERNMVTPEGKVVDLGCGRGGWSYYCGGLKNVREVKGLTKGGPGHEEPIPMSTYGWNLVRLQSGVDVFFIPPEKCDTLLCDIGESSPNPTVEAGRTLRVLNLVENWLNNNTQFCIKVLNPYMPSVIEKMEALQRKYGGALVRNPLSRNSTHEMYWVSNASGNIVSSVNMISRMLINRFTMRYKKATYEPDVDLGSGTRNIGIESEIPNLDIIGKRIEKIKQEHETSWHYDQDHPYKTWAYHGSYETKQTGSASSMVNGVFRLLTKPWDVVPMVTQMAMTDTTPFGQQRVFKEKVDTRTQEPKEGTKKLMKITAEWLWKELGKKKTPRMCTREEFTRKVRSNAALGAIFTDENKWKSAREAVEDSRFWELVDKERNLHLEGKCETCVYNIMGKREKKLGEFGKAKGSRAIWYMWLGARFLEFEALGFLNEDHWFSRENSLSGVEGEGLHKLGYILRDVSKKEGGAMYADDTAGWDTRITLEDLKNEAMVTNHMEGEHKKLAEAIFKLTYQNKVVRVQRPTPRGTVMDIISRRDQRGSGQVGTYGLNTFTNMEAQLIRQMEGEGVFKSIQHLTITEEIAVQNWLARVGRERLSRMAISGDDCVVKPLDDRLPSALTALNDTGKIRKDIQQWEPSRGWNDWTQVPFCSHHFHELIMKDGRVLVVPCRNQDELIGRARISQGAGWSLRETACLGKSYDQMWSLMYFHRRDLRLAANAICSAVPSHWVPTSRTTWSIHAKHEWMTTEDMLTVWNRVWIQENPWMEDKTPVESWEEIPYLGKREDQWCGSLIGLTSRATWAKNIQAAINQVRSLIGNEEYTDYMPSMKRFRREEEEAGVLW
# Galanin receptor type 3, sequence (O60755 whole entry): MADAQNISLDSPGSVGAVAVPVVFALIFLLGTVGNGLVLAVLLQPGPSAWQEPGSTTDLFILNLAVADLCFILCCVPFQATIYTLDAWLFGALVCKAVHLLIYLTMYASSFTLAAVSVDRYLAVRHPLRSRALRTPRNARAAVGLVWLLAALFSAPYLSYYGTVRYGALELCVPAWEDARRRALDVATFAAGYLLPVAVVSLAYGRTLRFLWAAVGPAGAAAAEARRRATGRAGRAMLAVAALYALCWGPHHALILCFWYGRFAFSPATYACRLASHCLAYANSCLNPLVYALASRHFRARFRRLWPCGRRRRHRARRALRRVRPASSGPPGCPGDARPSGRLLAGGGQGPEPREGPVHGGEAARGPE
# Genome polyprotein (Hepatitis C virus, UniProt Q2Q167), sequence (Q2Q167 whole entry): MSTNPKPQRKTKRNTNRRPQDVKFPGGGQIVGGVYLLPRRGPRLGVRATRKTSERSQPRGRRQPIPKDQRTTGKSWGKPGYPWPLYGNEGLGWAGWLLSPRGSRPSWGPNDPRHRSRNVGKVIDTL
# Mitogen-activated protein kinase 10, sequence (P53779 whole entry): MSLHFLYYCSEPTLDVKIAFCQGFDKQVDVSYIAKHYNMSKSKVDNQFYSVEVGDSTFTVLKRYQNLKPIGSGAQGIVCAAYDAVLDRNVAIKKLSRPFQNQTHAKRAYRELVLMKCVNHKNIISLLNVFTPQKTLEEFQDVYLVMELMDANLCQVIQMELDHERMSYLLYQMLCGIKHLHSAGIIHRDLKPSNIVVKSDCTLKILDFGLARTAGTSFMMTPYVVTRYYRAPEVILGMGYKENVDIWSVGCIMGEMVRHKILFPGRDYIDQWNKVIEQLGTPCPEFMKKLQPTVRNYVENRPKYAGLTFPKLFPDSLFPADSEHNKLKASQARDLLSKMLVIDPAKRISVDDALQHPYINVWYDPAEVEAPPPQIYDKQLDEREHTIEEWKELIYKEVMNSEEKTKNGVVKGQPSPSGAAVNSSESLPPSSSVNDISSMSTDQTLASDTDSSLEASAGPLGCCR
# Bifunctional protein GlmU, sequence (P9WMN3 whole entry, the tested form may be a part): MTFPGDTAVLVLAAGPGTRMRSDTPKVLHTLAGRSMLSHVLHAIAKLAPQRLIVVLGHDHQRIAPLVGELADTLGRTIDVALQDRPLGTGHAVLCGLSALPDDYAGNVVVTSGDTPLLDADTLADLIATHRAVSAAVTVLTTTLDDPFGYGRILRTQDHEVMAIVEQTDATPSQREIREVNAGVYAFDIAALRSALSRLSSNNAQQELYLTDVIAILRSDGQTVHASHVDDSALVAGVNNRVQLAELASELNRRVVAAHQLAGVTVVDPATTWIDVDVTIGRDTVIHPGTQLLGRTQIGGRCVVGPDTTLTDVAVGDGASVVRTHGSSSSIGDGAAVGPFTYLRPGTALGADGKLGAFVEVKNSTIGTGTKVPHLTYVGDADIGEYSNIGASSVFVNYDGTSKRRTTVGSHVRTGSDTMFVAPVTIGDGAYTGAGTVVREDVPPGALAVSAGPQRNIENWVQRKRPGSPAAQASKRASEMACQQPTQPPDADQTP
# E3 ubiquitin-protein ligase Mdm2, sequence (Q00987 whole entry): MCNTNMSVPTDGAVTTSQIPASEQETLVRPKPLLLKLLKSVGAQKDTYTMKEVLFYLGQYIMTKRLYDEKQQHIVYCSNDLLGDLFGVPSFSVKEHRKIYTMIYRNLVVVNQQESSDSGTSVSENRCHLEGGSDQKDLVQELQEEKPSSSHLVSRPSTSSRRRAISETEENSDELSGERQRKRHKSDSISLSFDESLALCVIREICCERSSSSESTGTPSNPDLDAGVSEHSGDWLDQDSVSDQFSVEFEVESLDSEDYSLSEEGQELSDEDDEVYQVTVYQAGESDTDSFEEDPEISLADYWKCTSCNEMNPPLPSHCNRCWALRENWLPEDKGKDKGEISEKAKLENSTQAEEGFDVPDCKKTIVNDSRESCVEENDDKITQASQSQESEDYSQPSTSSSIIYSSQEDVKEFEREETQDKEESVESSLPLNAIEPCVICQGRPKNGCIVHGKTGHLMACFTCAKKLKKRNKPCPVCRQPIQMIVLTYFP
# Estrogen receptor beta, sequence (Q92731 whole entry): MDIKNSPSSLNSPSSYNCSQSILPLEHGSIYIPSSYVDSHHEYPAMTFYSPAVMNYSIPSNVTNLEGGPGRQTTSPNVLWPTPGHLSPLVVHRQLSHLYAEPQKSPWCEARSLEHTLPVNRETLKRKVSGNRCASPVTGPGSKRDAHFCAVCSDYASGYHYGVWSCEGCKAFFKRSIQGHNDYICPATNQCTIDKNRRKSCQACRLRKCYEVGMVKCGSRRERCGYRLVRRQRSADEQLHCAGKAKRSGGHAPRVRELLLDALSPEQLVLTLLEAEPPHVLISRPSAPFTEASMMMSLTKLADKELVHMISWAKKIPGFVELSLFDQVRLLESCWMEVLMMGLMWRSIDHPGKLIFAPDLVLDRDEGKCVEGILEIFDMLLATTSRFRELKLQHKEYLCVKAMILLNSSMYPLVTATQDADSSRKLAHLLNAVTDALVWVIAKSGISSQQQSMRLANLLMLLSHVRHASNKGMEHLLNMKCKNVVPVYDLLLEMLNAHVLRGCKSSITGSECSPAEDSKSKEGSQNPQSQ
# Sphingosine 1-phosphate receptor 2, sequence (O95136 whole entry): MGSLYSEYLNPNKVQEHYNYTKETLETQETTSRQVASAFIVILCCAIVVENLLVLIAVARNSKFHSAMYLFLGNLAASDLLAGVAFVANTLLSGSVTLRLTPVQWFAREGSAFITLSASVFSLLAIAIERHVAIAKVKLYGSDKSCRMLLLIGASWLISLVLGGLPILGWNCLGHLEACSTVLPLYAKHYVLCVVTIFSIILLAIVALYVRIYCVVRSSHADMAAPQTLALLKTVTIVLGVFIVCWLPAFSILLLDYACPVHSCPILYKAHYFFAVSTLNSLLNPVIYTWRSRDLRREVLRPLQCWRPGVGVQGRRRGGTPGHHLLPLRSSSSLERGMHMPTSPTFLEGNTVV
smiles,measurement,setting,value
Cc1ccc(NC(=O)CCC2CC(C)(C)OC2=O)cc1 (centres undefined),EC50,[1],777 µM (not active)
CCOC(=O)c1csc(NC(=O)c2ccc3c(c2)OCCO3)n1,EC50,Streptokinase A,> 150 µM (not active)
same,EC50,Streptococcus,> 150 µM (not active)
same,EC50,[2],> 150 µM (not active)
same,IC50,[3],1.23 µM (active)
COc1cc(/C=C2\C(=O)N(c3ccccc3)N=C2C)ccc1Oc1ccc([N+](=O)[O-])cc1[N+](=O)[O-],IC50,SUMO-activating enzyme [4],24.5 µM (active)
same,IC50,SUMO-activating enzyme [5],5.91 µM (active)
same,IC50,Genome polyprotein [6],58 µM (active)
same,IC50,Genome polyprotein [7],> 49.8 µM (not active)
COc1cc(CC(=O)Nc2sccc2C(N)=O)cc(OC)c1OC,IC50,[8],5.94 µM (active)
CCC(NC(=O)Nc1nnc(C(F)(F)F)s1)(C(F)(F)F)C(F)(F)F,EC50,[9],2.79 µM (active)
same,EC50,Streptococcus,3.27 µM (active)
same,EC50,[10],3.15 µM (active)
same,AC50,[11],6.87 µM (active)
same,AC50,[12],4.23 µM (active)
same,IC50,Galanin receptor type 3,> 3.32 µM (active)
same,AC50,HEK293,7.24 µM (active)
same,EC50,[2],1.4 µM (active)
same,EC50,cells,> 29.9 µM (inactive)
same,IC50,[13],4.77 µM (active)
same,AC50,[14],4.15 µM (active)
O=C(O)c1cccc(-n2cccc2/C=N/O)c1,IC50,Estrogen receptor beta,< 23 nM (not active)
same,IC50,Bcl-2-like protein 10,18.3 µM (active)
same,EC50,[15],> 300 µM (not active)
same,IC50,[16],91.6 µM (active)
same,IC50,[17],3.09 µM (active)
same,AC50,[18],12.2 µM (active)
same,EC50,[19],> 300 µM (not active)
same,IC50,[20],> 10 µM (not active)
